In ChEMBL document CHEMBL4831515 (J Med Chem, 2021):
Values after ≈ are worked out from the molar mass of the structure shown.

Key:
[1] = system: Human immunodeficiency virus 1; test: Antiviral activity against HIV1 RES056 infected in human MT4 cells assessed as reduction in virus-induced cytopathogenic effect by MTT assay; details: Human immunodeficiency virus 1, RES056, MT4
[2] = system: Human immunodeficiency virus 2; test: Antiviral activity against wild type HIV2 ROD infected in human MT4 cells assessed as reduction in virus-induced cytopathogenic effect by MTT assay; details: Human immunodeficiency virus 2, ROD
[3] = Cytotoxicity against human MT4 cells assessed as reduction in cell viability by MTT assay
[4] = biological target: Human immunodeficiency virus type 1 reverse transcriptase (Human immunodeficiency virus 1, UniProt Q72547); test: Inhibition of wild type HIV1 reverse transcriptase assessed as reduction in biotin-dUTP incorporation into […] incubated for 1 hrs by ELISA
[5] = system: Human immunodeficiency virus 1; test: Antiviral activity against HIV1 3B infected in human MT4 cells assessed as reduction in virus-induced cytopathogenic effect by MTT assay; details: Human immunodeficiency virus 1, 3B
[6] = Selectivity ratio of CC50 for human MT4 cells to IC50 for HIV1 RES056 infected in MT4 cells
[7] = system: Human immunodeficiency virus 1; test: Antiviral activity against HIV1 harboring K103N mutant infected in human MT4 cells assessed as reduction in virus-induced cytopathogenic effect by MTT assay; format: functional, organism-based; details: Human immunodeficiency virus 1, MT4
[8] = in vitro; details: human, MT4 cells
Description: Selectivity index, ratio of CC50 for human MT4 cells to EC50 for HIV1 harboring E138K mutant infected in human MT4 cells

[9] = system: Human immunodeficiency virus 1; details: Human immunodeficiency virus 1, MT4
[10] = system: Human immunodeficiency virus 1; test: Antiviral activity against HIV1 harboring L100I mutant infected in human MT4 cells assessed as reduction in virus-induced cytopathogenic effect by MTT assay; details: Human immunodeficiency virus 1, MT4
[11] = system: Human immunodeficiency virus 1; test: Antiviral activity against wild type HIV1 harboring Y188L mutant infected in human MT4 cells assessed as reduction in virus-induced cytopathogenic effect by MTT assay; details: Human immunodeficiency virus 1, MT4
[12] = system: Human immunodeficiency virus 1; test: Antiviral activity against wild type HIV1 harboring Y181C mutant infected in human MT4 cells assessed as reduction in virus-induced cytopathogenic effect by MTT assay; details: Human immunodeficiency virus 1, MT4
[13] = system: Human immunodeficiency virus 1; test: Antiviral activity against HIV1 harboring F227L/V106A mutant infected in human MT4 cells assessed as reduction in virus-induced cytopathogenic effect by MTT assay; format: functional, organism-based; details: Human immunodeficiency virus 1, MT4
[14] = Solubility in phosphate buffer at pH7; details: pH 7

Compound	IC50 [4]	solubility [14]	EC50 [1]	EC50 [2]	CC50 [3]	EC50 [5]	selectivity ratio [6]	EC50 [7]	selectivity ratio [8]	EC50 [9]	EC50 [10]	EC50 [11]	EC50 [12]	EC50 [13]
Cc1cc(/C=C/C#N)cc(C)c1Oc1nc(NC2CCN(Cc3ccc(C(N)=O)cc3)CC2)nc2c1CSCC2	179 nM	–	37.3 nM	> 18500 nM	18500 nM	15.5 nM	495	12.5 nM	615	30 nM	8.65 nM	35.2 nM	31.1 nM	20 nM
Cc1cc(/C=C/C#N)cc(C)c1Oc1nc(Nc2ccc(C#N)nc2)nc2c1CSCC2	32 nM	–	81.6 nM	> 109000 nM	109000 nM	12.1 nM	1340	4.09 nM	8520	12.8 nM	9.08 nM	59.6 nM	13.3 nM	148 nM
Cc1cc(C#N)cc(C)c1Oc1nc(Nc2ccc(C#N)cc2)nc2c1CSCC2	41 nM	–	148 nM	> 202000 nM	202000 nM	5.64 nM	1360	< 3.87 nM	21400	9.43 nM	9.31 nM	24.3 nM	27.6 nM	27.1 nM
Cc1cc(/C=C/C#N)cc(C)c1Oc1nc(NC2CCN(Cc3ccc(S(N)(=O)=O)cc3)CC2)nc2c1CSCC2	203 nM	–	55.4 nM	4050 nM	15100 nM	10.7 nM	272	9.23 nM	370	40.7 nM	8.13 nM	37.1 nM	22.3 nM	16.3 nM
Cc1cc(C#N)cc(C)c1Oc1nc(Nc2ccc(C#N)cn2)nc2c1CSCC2	53 nM	–	256000 nM	> 302000 nM	> 302000 nM	68.7 nM	> 1	–	–	–	–	–	–	–
Cc1cc(C#N)cc(C)c1Oc1nc(NC2CCN(Cc3ccc(S(C)(=O)=O)cc3)CC2)nc2c1CSCC2	134 nM	–	125 nM	5640 nM	58000 nM	11.1 nM	465	6.65 nM	3100	18.7 nM	11.6 nM	18.4 nM	20.8 nM	17.1 nM
Cc1cc(C#N)cc(C)c1Oc1nc(Nc2ccc(C#N)cc2F)nc2c1CSCC2	65 nM	–	> 290000 nM	> 290000 nM	> 290000 nM	45.5 nM	> 1	–	–	–	–	–	–	–
Cc1cc(C#N)cc(C)c1Oc1nc(NC2CCN(Cc3ccc(S(N)(=O)=O)cc3)CC2)nc2c1CSCC2	151 nM	–	120 nM	> 221000 nM	> 221000 nM	13.7 nM	> 1850	7.17 nM	> 13900	15.9 nM	7.88 nM	12.6 nM	7.44 nM	15.1 nM
Cc1cc(C#N)cc(C)c1Oc1nc(Nc2ccc(C#N)nc2)nc2c1CSCC2	43 nM	–	2430 nM	> 288000 nM	288000 nM	14.1 nM	119	–	–	–	–	–	–	–
Cc1cc(/C=C/C#N)cc(C)c1Oc1nc(Nc2ccc(C#N)c(F)c2)nc2c1CSCC2	8 nM	–	133 nM	> 54400 nM	54400 nM	15.8 nM	408	15.8 nM	1320	41.2 nM	8.41 nM	54.3 nM	32.7 nM	74.3 nM
Cc1cc(/C=C/C#N)cc(C)c1Oc1nc(NC2CCN(Cc3ccc(S(C)(=O)=O)cc3)CC2)nc2c1CSCC2	–	–	116 nM	4810 nM	21500 nM	12.6 nM	186	8.48 nM	619	34.8 nM	9.24 nM	60.2 nM	34.1 nM	14.9 nM
Cc1cc(C#N)cc(C)c1Oc1nc(NC2CCN(Cc3ccc(C(N)=O)cc3)CC2)nc2c1CSCC2	143 nM	–	140 nM	> 236000 nM	> 236000 nM	9.98 nM	> 1690	8.8 nM	> 7180	32.9 nM	22.3 nM	22.8 nM	21.4 nM	853 nM
O=C1Nc2ccc(Cl)cc2[C@@](C#CC2CC2)(C(F)(F)F)O1 [EFAVIRENZ]	–	–	–	–	> 6340 nM	–	–	111 nM	–	–	–	–	–	–
Cc1ccnc2c1NC(=O)c1cccnc1N2C1CC1 [NEVIRAPINE]	–	–	> 15000 nM	> 15000 nM	> 15000 nM	–	–	12300 nM	–	182 nM	2220 nM	> 15000 nM	> 15000 nM	> 15000 nM
Cc1cc(/C=C/C#N)cc(C)c1Nc1ccnc(Nc2ccc(C#N)cc2)n1 [RILPIVIRINE]	–	2 ng/mL (≈ 5.46 nM)	–	–	–	–	–	–	–	–	–	–	–	–

Further lines, with some results ahead:

IC50 [4]	solubility [14]	Compound	EC50 [1]	EC50 [2]	CC50 [3]	EC50 [5]	selectivity ratio [6]	EC50 [7]	selectivity ratio [8]	EC50 [9]	EC50 [10]	EC50 [11]	EC50 [12]	EC50 [13]
144 nM	–	Cc1cc(C#N)cc(C)c1Oc1nc(NC2CCN(Cc3cccc(C(N)=O)c3)CC2)nc2c1CSCC2	1640 nM	> 236000 nM	> 236000 nM	15.4 nM	> 144	–	–	–	–	–	–	–
232 nM	–	Cc1cc(/C=C/C#N)cc(C)c1Oc1nc(NC2CCN(Cc3ccc([N+](=O)[O-])cc3)CC2)nc2c1CSCC2	160 nM	> 59500 nM	59500 nM	26.2 nM	371	–	–	–	–	–	–	–
184 nM	–	Cc1cc(/C=C/C#N)cc(C)c1Oc1nc(NC2CCN(Cc3cccc(C(N)=O)c3)CC2)nc2c1CSCC2	443 nM	> 9450 nM	9450 nM	50.4 nM	21	–	–	–	–	–	–	–
53 nM	–	Cc1cc(C#N)cc(C)c1Oc1nc(Nc2ccc(C#N)c(F)c2)nc2c1CSCC2	262 nM	> 269000 nM	269000 nM	13.5 nM	1030	–	–	–	–	–	–	–
171 nM	–	Cc1cc(/C=C/C#N)cc(C)c1Oc1nc(NC2CCN(Cc3cc(=O)[nH]c(=O)[nH]3)CC2)nc2c1CSCC2	881 nM	> 23200 nM	23200 nM	30.8 nM	26	–	–	–	–	–	–	–
59 nM	–	Cc1cc(/C=C/C#N)cc(C)c1Oc1nc(Nc2ccc(C#N)cn2)nc2c1CSCC2	608 nM	> 246000 nM	246000 nM	25.8 nM	404	–	–	–	–	–	–	–
230 nM	–	Cc1cc(C#N)cc(C)c1Oc1nc(NC2CCN(Cc3ccc([N+](=O)[O-])cc3)CC2)nc2c1CSCC2	2850 nM	> 236000 nM	> 236000 nM	11.5 nM	> 83	–	–	–	–	–	–	–
51 nM	–	Cc1cc(/C=C/C#N)cc(C)c1Oc1nc(Nc2ccc(C#N)cc2F)nc2c1CSCC2	5810 nM	> 273000 nM	> 273000 nM	31 nM	> 47	–	–	–	–	–	–	–
89 nM	–	Cc1cc(C#N)cc(C)c1Oc1nc(NC2CCN(Cc3cc(=O)[nH]c(=O)[nH]3)CC2)nc2c1CSCC2	3200 nM	> 25600 nM	25600 nM	13.8 nM	8	–	–	–	–	–	–	–
